For one assay, the target named is PI3Kδ (Homo sapiens (Human), UniProt O00329). Kind of assay: Enzymatic activity of PI3K isoforms, TR-FRET assay (PIP3 formation). It counts as biochemical. The following applies: bound given in nM. The protocol:
(§1) Enzymatic activity of the class I PI3K isoforms was measured using a time-resolved fluorescence resonance energy transfer (TR-FRET) assay that monitors formation of the product 3,4,5-inositol triphosphate molecule (PIP3), as it competes with fluorescently labeled PIP3 for binding to the GRP-1 pleckstrin homology domain protein. An increase in […] product results in a decrease in TR-FRET signal as the labeled fluorophore is displaced from the GRP-1 protein binding site.
(§2) Class I PI3K isoforms were expressed and purified as heterodimeric recombinant proteins. All assay reagents and buffers for the TR-FRET assay were purchased from Millipore. […] After an assay reaction time of 30 minutes at 25° C., reactions were terminated with a final concentration of 10 mM EDTA, 10 nM labeled-PIP3, and 35 nM Europium labeled GRP-1 detector protein before reading TR-FRET on an Envision plate reader (Ex: 340 nm; Em: 615/665 nm; 100 μs delay and 500 μs read window).
(§3) IC50 are reported in units of nM. These assays generally produced results within 3-fold of the reported mean.

A further assay addresses PI3Kα (Homo sapiens (Human), UniProt P42336). The assay is described as above. The following applies: bound given in uM. The assay is classed as biochemical. As for the experimental part:
as §1, §2, §3

Each structure is given as a SMILES string.

For eleven compounds, IC50 results are on record in US9266878B2, “Phosphatidylinositol 3-kinase inhibitors” (Gilead Calistoga LLC, priority 2012, dated 2016).

Sequence of PI3Kδ (O00329 whole entry, the tested form may be a part, canonical isoform): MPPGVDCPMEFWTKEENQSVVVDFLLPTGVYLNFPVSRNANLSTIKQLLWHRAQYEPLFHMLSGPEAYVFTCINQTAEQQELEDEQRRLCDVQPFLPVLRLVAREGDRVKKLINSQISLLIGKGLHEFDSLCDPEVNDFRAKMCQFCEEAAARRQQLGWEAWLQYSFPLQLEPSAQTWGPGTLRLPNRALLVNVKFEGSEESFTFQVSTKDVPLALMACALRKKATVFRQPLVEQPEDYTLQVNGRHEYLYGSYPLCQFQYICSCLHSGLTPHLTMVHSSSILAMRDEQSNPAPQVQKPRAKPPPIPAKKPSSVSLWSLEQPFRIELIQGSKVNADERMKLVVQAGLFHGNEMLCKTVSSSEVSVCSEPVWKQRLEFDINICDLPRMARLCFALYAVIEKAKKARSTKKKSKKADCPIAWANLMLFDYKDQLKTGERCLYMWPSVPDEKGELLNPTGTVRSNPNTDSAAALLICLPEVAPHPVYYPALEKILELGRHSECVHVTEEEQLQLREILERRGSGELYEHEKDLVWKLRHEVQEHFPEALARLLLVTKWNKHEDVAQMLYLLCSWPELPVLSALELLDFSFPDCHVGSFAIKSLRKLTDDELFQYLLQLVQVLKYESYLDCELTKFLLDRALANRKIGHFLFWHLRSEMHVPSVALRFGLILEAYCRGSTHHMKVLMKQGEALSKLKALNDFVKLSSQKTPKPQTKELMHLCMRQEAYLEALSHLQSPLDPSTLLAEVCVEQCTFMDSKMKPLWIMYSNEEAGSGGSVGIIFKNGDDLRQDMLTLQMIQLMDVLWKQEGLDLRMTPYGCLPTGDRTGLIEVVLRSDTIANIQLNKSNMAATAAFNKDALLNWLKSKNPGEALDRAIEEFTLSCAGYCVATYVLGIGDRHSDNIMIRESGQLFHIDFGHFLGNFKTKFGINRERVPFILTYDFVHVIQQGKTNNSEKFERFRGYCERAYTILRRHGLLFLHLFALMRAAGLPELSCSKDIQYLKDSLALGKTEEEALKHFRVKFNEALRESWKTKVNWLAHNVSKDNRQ
Sequence of PI3Kδ (P27986 whole entry partner, the tested form may be a part, canonical isoform): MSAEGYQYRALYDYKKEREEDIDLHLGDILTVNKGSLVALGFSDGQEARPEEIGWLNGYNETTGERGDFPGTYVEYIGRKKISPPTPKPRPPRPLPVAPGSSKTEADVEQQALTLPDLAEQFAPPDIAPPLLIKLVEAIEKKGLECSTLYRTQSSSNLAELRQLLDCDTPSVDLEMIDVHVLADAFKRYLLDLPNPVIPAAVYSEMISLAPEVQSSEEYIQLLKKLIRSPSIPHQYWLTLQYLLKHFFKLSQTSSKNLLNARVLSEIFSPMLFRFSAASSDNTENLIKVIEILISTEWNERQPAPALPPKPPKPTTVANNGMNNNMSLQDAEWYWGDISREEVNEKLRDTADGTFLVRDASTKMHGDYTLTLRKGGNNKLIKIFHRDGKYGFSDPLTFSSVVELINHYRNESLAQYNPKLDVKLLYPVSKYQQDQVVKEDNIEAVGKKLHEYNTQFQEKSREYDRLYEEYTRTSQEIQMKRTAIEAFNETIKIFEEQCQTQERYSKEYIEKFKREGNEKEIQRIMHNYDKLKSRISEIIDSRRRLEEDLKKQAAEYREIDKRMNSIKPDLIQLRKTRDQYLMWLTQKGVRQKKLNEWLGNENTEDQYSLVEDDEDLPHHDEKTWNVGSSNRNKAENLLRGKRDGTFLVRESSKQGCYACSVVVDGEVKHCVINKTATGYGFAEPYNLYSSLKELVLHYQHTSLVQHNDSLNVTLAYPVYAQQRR
Sequence of PI3Kα (P42336 whole entry): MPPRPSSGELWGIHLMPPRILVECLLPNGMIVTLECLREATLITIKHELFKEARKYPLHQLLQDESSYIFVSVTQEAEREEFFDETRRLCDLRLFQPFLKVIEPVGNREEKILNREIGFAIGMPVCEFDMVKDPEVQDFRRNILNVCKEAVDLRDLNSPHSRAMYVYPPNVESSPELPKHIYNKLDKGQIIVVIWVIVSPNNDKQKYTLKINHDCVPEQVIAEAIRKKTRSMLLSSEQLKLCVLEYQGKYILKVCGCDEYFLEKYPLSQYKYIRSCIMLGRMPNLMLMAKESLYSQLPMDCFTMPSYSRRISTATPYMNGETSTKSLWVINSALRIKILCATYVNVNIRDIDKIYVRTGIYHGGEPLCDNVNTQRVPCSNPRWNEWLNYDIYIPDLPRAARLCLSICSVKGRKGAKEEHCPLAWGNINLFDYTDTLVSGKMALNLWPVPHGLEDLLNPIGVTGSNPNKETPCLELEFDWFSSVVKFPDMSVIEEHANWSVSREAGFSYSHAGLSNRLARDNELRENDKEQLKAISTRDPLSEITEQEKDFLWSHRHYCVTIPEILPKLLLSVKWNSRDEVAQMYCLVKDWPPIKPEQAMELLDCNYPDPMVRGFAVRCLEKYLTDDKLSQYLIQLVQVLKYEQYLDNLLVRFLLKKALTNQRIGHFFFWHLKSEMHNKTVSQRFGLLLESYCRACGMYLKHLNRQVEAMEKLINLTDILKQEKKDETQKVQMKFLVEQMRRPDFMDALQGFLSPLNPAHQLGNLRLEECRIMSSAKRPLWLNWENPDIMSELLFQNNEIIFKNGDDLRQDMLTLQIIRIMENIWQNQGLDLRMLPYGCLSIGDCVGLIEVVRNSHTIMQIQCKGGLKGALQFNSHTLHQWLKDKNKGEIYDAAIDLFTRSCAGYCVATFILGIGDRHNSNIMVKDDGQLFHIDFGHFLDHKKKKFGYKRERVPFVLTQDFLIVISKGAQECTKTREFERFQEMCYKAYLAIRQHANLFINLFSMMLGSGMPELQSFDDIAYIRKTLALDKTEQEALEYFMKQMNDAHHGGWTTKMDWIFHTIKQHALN
Sequence of PI3Kα (P27986 whole entry partner): as the sequence (P27986 whole entry partner, the tested form may be a part, canonical isoform) above

As a reminder, the IC50 is the concentration that inhibits the measured activity by half. Take `COc1cc(F)cc(C#Cc2c(N)ncnc2N[C@@H](C)c2nc3cccc(Cl)c3c(=O)n2-c2ccccc2)c1` [Compound 47a, (S)-2-(1-(6-amino-5-((3-fluoro-5-methoxyphenyl)ethynyl)pyrimidin-4-ylamino)ethyl)-5-chloro-3-phenylquinazolin-4(3H)-one]: the figures for the IC50 against PI3Kδ and on PI3Kα were < 100 nM and > 1 µM, respectively.

Turning to `Cc1ccc(F)c2nc([C@H](C)Nc3ncnc(N)c3C#Cc3ccc(F)cn3)n(-c3ccccc3)c(=O)c12` [Compound 62a, (S)-2-(1-((6-amino-5-((5-fluoropyridin-2-yl)ethynyl)pyrimidin-4-yl)amino)ethyl)-8-fluoro-5-methyl-3-phenylquinazolin-4(3H)-one], the IC50 on PI3Kδ was < 100 nM; at PI3Kα, > 1 µM.

Take `Nc1ncnc(N2CCC[C@H]2c2nc3cccc(Cl)c3c(=O)n2-c2ccccc2)c1C#Cc1ccccn1` [Compound 37a, (S)-2-(1-(6-amino-5-(pyridin-2-ylethynyl)pyrimidin-4-yl)pyrrolidin-2-yl)-5-chloro-3-phenylquinazolin-4(3H)-one]: the IC50 against PI3Kδ was < 100 nM; on PI3Kα, > 1 µM.

Consider `C[C@H](Nc1ncnc(N)c1C#Cc1ccccc1)c1nc2cccc(F)c2c(=O)n1-c1cccc(F)c1` [Compound 111a, (S)-2-(1-((6-amino-5-(phenylethynyl)pyrimidin-4-yl)amino)ethyl)-5-fluoro-3-(3-fluorophenyl)quinazolin-4(3H)-one], for which the IC50 was < 100 nM against PI3Kδ and > 1 µM at PI3Kα.

For `C[C@H](Nc1ncnc(N)c1C#Cc1ccccc1)c1nc2cccc(C#N)c2c(=O)n1-c1ccccc1` [Compound 114a, (S)-2-(1-((6-amino-5-(phenylethynyl)pyrimidin-4-yl)amino)ethyl)-4-oxo-3-phenyl-3,4-dihydroquinazoline-5-carbonitrile], the IC50 on PI3Kδ is < 100 nM; against PI3Kα it was > 1 µM.

Regarding `C[C@H](Nc1ncnc(N)c1C#Cc1ccc(F)cn1)c1nc2cccc(Cl)c2c(=O)n1-c1ccccc1` [Compound 48a, (S)-2-(1-(6-amino-5-((5-fluoropyridin-2-yl)ethynyl)pyrimidin-4-ylamino)ethyl)-5-chloro-3-phenylquinazolin-4(3H)-one], the IC50 is < 100 nM on PI3Kδ and > 1 µM on PI3Kα.

With `C[C@H](Nc1ncnc(N)c1C#Cc1ccc(N)cn1)c1nc2cccc(Cl)c2c(=O)n1-c1cc(F)cc(F)c1` [Compound 34a, (S)-2-(1-(6-amino-5-((5-aminopyridin-2-yl)ethynyl)pyrimidin-4-ylamino)ethyl)-5-chloro-3-(3,5-difluorophenyl)quinazolin-4(3H)-one], the IC50 is < 100 nM on PI3Kδ and > 1 µM on PI3Kα.

On to `COc1ccc(C#Cc2c(N)ncnc2N[C@@H](C)c2nc3c(F)cccc3c(=O)n2-c2ccccc2)nc1` [Compound 12a, (S)-2-(1-(6-amino-5-((5-methoxypyridin-2-yl)ethynyl)pyrimidin-4-ylamino)ethyl)-8-fluoro-3-phenylquinazolin-4(3H)-one], for which the IC50 was < 100 nM against PI3Kδ and > 1 µM against PI3Kα.

With `C[C@H](Nc1ncnc(N)c1C#Cc1cnc(N)nc1)c1nc2cccc(Cl)c2c(=O)n1-c1cc(F)cc(F)c1` [Compound 32a, (S)-2-(1-(6-amino-5-((2-aminopyrimidin-5-yl)ethynyl)pyrimidin-4-ylamino)ethyl)-5-chloro-3-(3,5-difluorophenyl)quinazolin-4(3H)-one], the IC50 against PI3Kδ was < 100 nM.

In the case of `CCNS(=O)(=O)c1cccc(-n2c([C@H](C)Nc3ncnc(N)c3C#Cc3ccccn3)nc3cccc(Cl)c3c2=O)c1` [Compound 39a, (S)-3-(2-(1-(6-amino-5-(pyridin-2-ylethynyl)pyrimidin-4-ylamino)ethyl)-5-chloro-4-oxoquinazolin-3(4H)-yl)-N-ethylbenzenesulfonamide], on PI3Kδ, the half-inhibitory concentration (IC50) is < 100 nM.

With `C[C@H](Nc1ncnc(N)c1C#Cc1ccccn1)c1nc2cccc(Cl)c2c(=O)n1-c1cccc(S(N)(=O)=O)c1` [Compound 40a, (S)-3-(2-(1-(6-amino-5-(pyridin-2-ylethynyl)pyrimidin-4-ylamino)ethyl)-5-chloro-4-oxoquinazolin-3(4H)-yl)benzenesulfonamide], the IC50 at PI3Kδ is < 100 nM.
